# Calls of active or inactive are those of the source. No cut-off for these calls is given here.
# Organism: Rattus norvegicus
# Test: Antagonist activity at SRIF in rat pituitary culture assessed as effect on growth hormone secretion
# Format: functional
structure (smiles),measurement,value
CN1CC[C@]2(c3cccc4c3C[C@H]3N(C)CC[C@@]45[C@@H]4Nc6c([C@]78CCN(C)[C@H]7Nc7ccccc78)cccc6[C@]35CCN4C)c3ccccc3N[C@H]12,Activity,Active
